Source: patent US20240317706A1, “COMPOUNDS THAT MEDIATE PROTEIN DEGRADATION AND METHODS OF USE THEREOF” (Monte Rosa Therapeutics, Inc., priority 2021, published 2024)

What was measured:
CRBN-DDB1 = CRBN-DDB1 (Homo sapiens, UniProt Q96SW2); assay: Compound binding to CRBN by HTRF assay; conditions: CRBN-DDB1 2.5 nM, Cy5-Thalidomide 100 nM, 30 min; Ki from geometric mean IC50 by Cheng-Prustoff transformation
Method: Compound activity was monitored in a Homogenous Time-Resolved Fluorescence (HTRF) assay using 1-[5-({2-[2-(2-{[2-(2,6-dioxopiperidin-3-yl)-1,3-dioxo-2,3-dihydro-1H-isoindol-4-yl]oxy}acetamido)ethoxy]ethyl}carbamoyl)pentyl]-3,3-dimethyl-2-[(1E,3E)-5-[(2E)-1,3,3-trimethyl-5-sulfo-2,3-dihydro-1H-indol-2-ylidene]penta-1,3-dien-1-yl]-3H-indol-1-ium-5-sulfonate as a fluorescent probe. Biochemical assays were conducted in Greiner white 384 well HiBase plates (Cat. No 784075-25) in 10 μL total volume. A one pot detection solution of CRBN-DDB1 (2.5 nM), Anti-His Terbium Cryptate Gold (1×, PerkinElmer Cat. #: 61HI2TLB), and Cy5-Thalidomide (100 nM, Tenova Cat.: T52461) was prepared in 20 mM HEPES, 20 mM NaCl, 0.2 mM TCEP, 0.2 mM EDTA, and 0.005% Tween20 was dispensed to each assay plate. Compounds were stored in dry, ambient temperatures at 10 mM. A 10-point, 1:3 dilution series was prepared from 10 mM stock concentrations in Echo-compatible LDV plates. 10 nL of each compound dilution series was dispensed into assays wells using an Echo 650 (Labcyte inc. USA). 10 nL of 10 mM Lenalidomide was transferred into the active-control wells for the assay and 10 nL of DMSO was transferred into the neutral-control wells. The assay was then allowed to incubate for 30 min at ambient temperature after transferring compound. Plate measurements were taken on a Pherastar FSX (BMG Labtech, Germany) using the HTRF Red filter (Ex. 337 nm, em1: 620 nm, em2: 665 nm) (Flashes: 50, Integration time: 60-400 us, Z-height: 10 mm, Ratio-multiplier: 10,000). The HTRF signal was then subsequently normalized to the neutral and active controls. Analysis and IC50 values were derived using KNIME analytics (KNIME Zurich) transformation and fitting within Collaborative Drug Discovery (Collaborative Drug Discovery USA). Ki was derived from the geometric mean of the IC50 values using the Cheng-Prustoff transformation.

CDK2 = target: T1, CDK2 (Homo sapiens, UniProt P24941); assay: NanoBiT assay (CDK2 degradation); type: cell-based; conditions: HEK293, HEK293 clonal line with CRISPR KI HiBiT tag on CDK2, Endurazine live cell substrate, 24 hours
T1 construct: HEK293 clonal lines with CRISPR KI HiBiT tag on CDK2 proteins; host or cells: HEK293 clonal line, CRISPR knock-in HiBiT-CDK2, stably expressing LgBiT
Method: HEK293 clonal lines with CRISPR KI HiBiT tag on either CDK2 proteins and stably expressing LgBiT protein were obtained from Promega (Madison, WI). Cells were plated at 5000 cells per well using Multiflo (BioTek) in 384-well white solid bottom plates (Corning, 3570BC) in 25 ul volume in DMEM media (DMEM, high glucose, HEPES, no phenol red (ThermoFisher Scientific, 21063029)) containing 10% FBS (Corning, 35-075-CV), 1% Penicillin/Streptomycin ((ThermoFisher Scientific, 15140-122), and 1% Endurazine (Nano-Glo Endurazine Live Cell Substrate (Promega, N2571)). Cells were incubated for 16 hours at 37 C, 5% CO2. 75 nL of a compound at 30 μM were dosed into the plate using an Echo® 650 liquid handler (Labcyte). Cells were incubated at 37° C., 5% CO2 for 24 hours and then signal was read on a Pherastar FSX using “LUM plus” optic module.
Analysis was performed in Scinamic (Scinamic, Cambridge, MA). Luminescence response (R) was calculated by the formula: response=100*(S−N)/(P−N) where S is the signal of the well, N and P the mean negative and positive control values respectively of the same plate. The luminescence response was then fitted in Scinamic using a 3-parameter agonist logistic fit (hillslope=1, EC50>0, top/bottom unconstrained).

CRBN-DDB1, sequence (Q96SW2 whole entry): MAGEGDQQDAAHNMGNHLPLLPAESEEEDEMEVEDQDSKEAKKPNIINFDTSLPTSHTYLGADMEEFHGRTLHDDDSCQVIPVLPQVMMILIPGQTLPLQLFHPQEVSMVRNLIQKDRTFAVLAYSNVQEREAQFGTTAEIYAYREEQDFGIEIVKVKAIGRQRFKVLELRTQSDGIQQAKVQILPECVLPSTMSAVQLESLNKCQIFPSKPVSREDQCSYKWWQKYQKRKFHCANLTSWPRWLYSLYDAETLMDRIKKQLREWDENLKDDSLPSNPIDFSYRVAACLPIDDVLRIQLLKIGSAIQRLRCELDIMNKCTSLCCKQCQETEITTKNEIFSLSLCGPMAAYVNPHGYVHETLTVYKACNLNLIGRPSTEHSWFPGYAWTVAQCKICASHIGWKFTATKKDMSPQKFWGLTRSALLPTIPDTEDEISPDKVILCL
CRBN-DDB1, sequence (Q16531 whole entry partner): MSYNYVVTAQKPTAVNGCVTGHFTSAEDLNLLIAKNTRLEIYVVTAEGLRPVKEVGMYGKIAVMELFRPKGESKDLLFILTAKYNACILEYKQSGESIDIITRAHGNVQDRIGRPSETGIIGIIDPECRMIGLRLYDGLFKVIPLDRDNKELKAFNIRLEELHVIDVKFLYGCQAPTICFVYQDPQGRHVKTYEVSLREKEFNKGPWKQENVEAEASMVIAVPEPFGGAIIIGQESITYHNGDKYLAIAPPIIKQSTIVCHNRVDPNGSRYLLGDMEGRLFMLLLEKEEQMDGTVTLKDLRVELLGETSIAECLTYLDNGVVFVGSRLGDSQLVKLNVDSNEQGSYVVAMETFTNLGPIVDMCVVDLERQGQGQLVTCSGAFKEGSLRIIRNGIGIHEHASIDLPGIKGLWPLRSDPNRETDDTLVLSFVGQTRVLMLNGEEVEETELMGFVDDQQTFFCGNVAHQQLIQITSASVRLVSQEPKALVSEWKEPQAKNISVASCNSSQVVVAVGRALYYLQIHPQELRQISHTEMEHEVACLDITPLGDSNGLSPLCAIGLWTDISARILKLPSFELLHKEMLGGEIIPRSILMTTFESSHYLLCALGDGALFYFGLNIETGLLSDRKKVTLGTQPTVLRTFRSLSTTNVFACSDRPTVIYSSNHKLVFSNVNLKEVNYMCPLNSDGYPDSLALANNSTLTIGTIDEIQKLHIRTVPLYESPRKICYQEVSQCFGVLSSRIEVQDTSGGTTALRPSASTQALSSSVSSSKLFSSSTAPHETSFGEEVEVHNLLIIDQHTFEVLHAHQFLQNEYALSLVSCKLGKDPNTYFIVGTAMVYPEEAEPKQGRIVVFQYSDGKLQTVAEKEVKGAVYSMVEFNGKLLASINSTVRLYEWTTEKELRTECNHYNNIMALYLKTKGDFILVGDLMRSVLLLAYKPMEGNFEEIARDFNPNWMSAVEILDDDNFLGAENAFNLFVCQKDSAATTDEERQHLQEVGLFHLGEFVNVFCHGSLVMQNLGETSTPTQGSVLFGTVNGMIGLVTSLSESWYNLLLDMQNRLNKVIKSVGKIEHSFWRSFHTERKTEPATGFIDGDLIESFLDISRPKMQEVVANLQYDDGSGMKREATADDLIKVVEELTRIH

Ki (CRBN-DDB1)	Dmax (CDK2)	SMILES
100 to 1000 nM	≤ 10%	O=C1CCC(N2Cc3ccc(CNC(=O)OCC4CCC[C@H]4C(F)(F)F)cc3C2=O)C(=O)N1 (mixture of isomers) [Compound 73, rac-[(1R,2R)-2-(trifluoromethyl)cyclopentyl]methyl N-{[2-(2,6-dioxopiperidin-3-yl)-3-oxo-2,3-dihydro-1H-isoindol-5-yl]methyl}carbamate]
100 to 1000 nM	≤ 10%	CC(C)(C)OC(=O)N1CC(COC(=O)NCc2ccc3c(c2)C(=O)N(C2CCC(=O)NC2=O)C3)C1 (centres unmarked) [Compound 45, tert-butyl 3-{[({[2-(2,6-dioxopiperidin-3-yl)-3-oxo-2,3-dihydro-1H-isoindol-5-yl]methyl}carbamoyl)oxy]methyl}azetidine-1-carboxylate]
100 to 1000 nM	10 to 50%	COCC(OC(=O)NCc1ccc2c(c1)C(=O)N(C1CCC(=O)NC1=O)C2)C1CC1 (centres unmarked) [Compound 49, 1-cyclopropyl-2-methoxyethyl N-{[2-(2,6-dioxopiperidin-3-yl)-3-oxo-2,3-dihydro-1H-isoindol-5-yl]methyl}carbamate]
≤ 100 nM	≤ 10%	O=C1CCC(N2Cc3ccc(CNC(=O)OCC4CCS(=O)(=O)C4)cc3C2=O)C(=O)N1 (centres unmarked) [Compound 51, (1,1-dioxo-1lambda6-thiolan-3-yl)methyl N-{[2-(2,6-dioxopiperidin-3-yl)-3-oxo-2,3-dihydro-1H-isoindol-5-yl]methyl}carbamate]
100 to 1000 nM	10 to 50%	C[C@H](CC1CC1)OC(=O)NCc1ccc2c(c1)C(=O)N(C1CCC(=O)NC1=O)C2 (stereo partly drawn) [Compound 56, (2R)-1-cyclopropylpropan-2-yl N-{[2-(2,6-dioxopiperidin-3-yl)-3-oxo-2,3-dihydro-1H-isoindol-5-yl]methyl}carbamate]
≤ 100 nM	≤ 10%	CC(COC(=O)NCc1ccc2c(c1)C(=O)N(C1CCC(=O)NC1=O)C2)C1CCC1 (centres unmarked) [Compound 58, 2-cyclobutylpropyl N-{[2-(2,6-dioxopiperidin-3-yl)-3-oxo-2,3-dihydro-1H-isoindol-5-yl]methyl}carbamate]
100 to 1000 nM	≤ 10%	CC12COC(COC(=O)NCc3ccc4c(c3)C(=O)N(C3CCC(=O)NC3=O)C4)(C1)C2 (centres unmarked) [Compound 72, {4-methyl-2-oxabicyclo[2.1.1]hexan-1-yl}methyl N-{[2-(2,6-dioxopiperidin-3-yl)-3-oxo-2,3-dihydro-1H-isoindol-5-yl]methyl}carbamate]
100 to 1000 nM	10 to 50%	O=C1CCC(N2Cc3ccc(CNC(=O)OCC4(C5CC5)CC4)cc3C2=O)C(=O)N1 (centres unmarked) [Compound 77, {[1,1′-bi(cyclopropane)]-1-yl}methyl N-{[2-(2,6-dioxopiperidin-3-yl)-3-oxo-2,3-dihydro-1H-isoindol-5-yl]methyl}carbamate]
100 to 1000 nM	≤ 10%	CC1(C)COC1COC(=O)NCc1ccc2c(c1)C(=O)N(C1CCC(=O)NC1=O)C2 (centres unmarked) [Compound 79, (3,3-dimethyloxetan-2-yl)methyl N-{[2-(2,6-dioxopiperidin-3-yl)-3-oxo-2,3-dihydro-1H-isoindol-5-yl]methyl}carbamate]
100 to 1000 nM	≤ 10%	O=C1CCC(N2Cc3ccc(CNC(=O)OCC4(CC5CC5)CC4)cc3C2=O)C(=O)N1 (centres unmarked) [Compound 80, [1-(cyclopropylmethyl)cyclopropyl]methyl N-{[2-(2,6-dioxopiperidin-3-yl)-3-oxo-2,3-dihydro-1H-isoindol-5-yl]methyl}carbamate]
≤ 100 nM	10 to 50%	CC1(COC(=O)NCc2ccc3c(c2)C(=O)N(C2CCC(=O)NC2=O)C3)CS(=O)(=O)C1 (centres unmarked) [Compound 81, (3-methyl-1,1-dioxo-1lambda6-thietan-3-yl)methyl N-{[2-(2,6-dioxopiperidin-3-yl)-3-oxo-2,3-dihydro-1H-isoindol-5-yl]methyl}carbamate]
100 to 1000 nM	≤ 10%	CC1(COC(=O)NCc2ccc3c(c2)C(=O)N(C2CCC(=O)NC2=O)C3)CCOCC1 (centres unmarked) [Compound 83, (4-methyloxan-4-yl)methyl N-{[2-(2,6-dioxopiperidin-3-yl)-3-oxo-2,3-dihydro-1H-isoindol-5-yl]methyl}carbamate]
100 to 1000 nM	≤ 10%	CS(=O)(=O)N1CC(COC(=O)NCc2ccc3c(c2)C(=O)N(C2CCC(=O)NC2=O)C3)C1 (centres unmarked) [Compound 91, (1-methanesulfonylazetidin-3-yl)methyl N-{[2-(2,6-dioxopiperidin-3-yl)-3-oxo-2,3-dihydro-1H-isoindol-5-yl]methyl}carbamate]
100 to 1000 nM	10 to 50%	CCC1(CCCOC(=O)NCc2ccc3c(c2)C(=O)N(C2CCC(=O)NC2=O)C3)CC1 (centres unmarked) [Compound 101, 3-(1-ethylcyclopropyl)propyl ((2-(2,6-dioxopiperidin-3-yl)-3-oxoisoindolin-5-yl)methyl)carbamate]
≤ 100 nM	10 to 50%	COc1c(CNC(=O)OCC2CC3(CCC3)C2)ccc2c1C(=O)N(C1CCC(=O)NC1=O)C2 (centres unmarked) [Compound 102, spiro[3.3]heptan-2-ylmethyl ((2-(2,6-dioxopiperidin-3-yl)-4-methoxy-3-oxoisoindolin-5-yl)methyl)carbamate]
≤ 100 nM	10 to 50%	COc1cc(CNC(=O)OCC2CC3(CCC3)C2)cc2c1CN(C1CCC(=O)NC1=O)C2=O (centres unmarked) [Compound 103, spiro[3.3]heptan-2-ylmethyl ((2-(2,6-dioxopiperidin-3-yl)-7-methoxy-3-oxoisoindolin-5-yl)methyl)carbamate]
≤ 100 nM	50 to 80%	O=C1CCC(N2Cc3c(Cl)cc(CNC(=O)OCC4CC5(CCC5)C4)cc3C2=O)C(=O)N1 (centres unmarked) [Compound 104, spiro[3.3]heptan-2-ylmethyl ((7-chloro-2-(2,6-dioxopiperidin-3-yl)-3-oxoisoindolin-5-yl)methyl)carbamate]
≤ 100 nM	50 to 80%	Cc1cc(CNC(=O)OCC2CC3(CCC3)C2)cc2c1CN(C1CCC(=O)NC1=O)C2=O (centres unmarked) [Compound 105, spiro[3.3]heptan-2-ylmethyl ((2-(2,6-dioxopiperidin-3-yl)-7-methyl-3-oxoisoindolin-5-yl)methyl)carbamate]
100 to 1000 nM	50 to 80%	N#Cc1cc(CNC(=O)OCC2CC3(CCC3)C2)cc2c1CN(C1CCC(=O)NC1=O)C2=O (centres unmarked) [Compound 106, spiro[3.3]heptan-2-ylmethyl ((7-cyano-2-(2,6-dioxopiperidin-3-yl)-3-oxoisoindolin-5-yl)methyl)carbamate]
100 to 1000 nM	50 to 80%	O=C1CCC(N2Cc3ccc(CNC(=O)OC(c4ccccc4)C4CC5(CCC5)C4)cc3C2=O)C(=O)N1 (centres unmarked) [Compound 107, phenyl(spiro[3.3]heptan-2-yl)methyl ((2-(2,6-dioxopiperidin-3-yl)-3-oxoisoindolin-5-yl)methyl)carbamate]
100 to 1000 nM	10 to 50%	O=C1CCC(N2Cc3ccc(CNC(=O)OC(C4CC4)C4CC5(CCC5)C4)cc3C2=O)C(=O)N1 (centres unmarked) [Compound 108, cyclopropyl(spiro[3.3]heptan-2-yl)methyl ((2-(2,6-dioxopiperidin-3-yl)-3-oxoisoindolin-5-yl)methyl)carbamate]
100 to 1000 nM	10 to 50%	O=C1CCC(N2Cc3ccc(CNC(=O)OC(Cc4ccccc4)C4CC5(CCC5)C4)cc3C2=O)C(=O)N1 (centres unmarked) [Compound 109, 2-phenyl-1-(spiro[3.3]heptan-2-yl)ethyl ((2-(2,6-dioxopiperidin-3-yl)-3-oxoisoindolin-5-yl)methyl)carbamate]
